Counter-ions that a name gives are not always drawn.

Consider 26 molecules from patent US7939552B2, “Benzyloxypropylamine derivative” (Nippon Zoki Pharmaceutical Co., Ltd., priority 2005, dated 2011).

The target of series [1] is T1, human NK1 receptor (Homo sapiens, UniProt P25103).
T1 construct: expressed in transfected cells; host or cells: CHO cells (hNK1-CHO)
The experiment in a line: Human NK1 receptor binding assay (3H-Sar9-SP, hNK1-CHO cells). To be noted: room temperature 60 minutes. The protocol: A supernatant liquid was removed from an hNK1-CHO cell incubation flask in a confluent state, trypsin (0.25%)-EDTA (1 mmol/L) (Gibco) was added thereto and the cells were exfoliated and recovered. After they were washed with a buffer A (pH 7.5; 50 mmol/L Tris hydrochloride 50 mmol/L, 150 mmol/L NaCl and 0.02% BSA) for one time (at […] for 5 minutes), cell numbers were adjusted and re-floated on a buffer for assay {a buffer A to which 40 μg/mL bacitracin (Sigma), 4 μg/mL leupeptin (Sigma), 4 μg/mL chymostatin (Sigma) and 4 μg/mL phosphoramidon (Sigma) were added}. The hNK1-CHO cells (100 μL) were placed in a tube (TPX-12, Maruemu) in which 300 μL of the buffer for assay was charged so as to make cells 10^5 per tube, 50 μL of a hot solution (^3H-Sar^9-SP, final concentration: […]) and 50 μL of a substance to be tested were added (a system of 500 μL), stirred and made to react at room temperature for 60 minutes. After completion of the reaction, it was filtered through a GF/B filter (25 mm diameter, Whatman) which was previously dipped in 0.1% polyethyleneimine p-70 (Wako Pure Chemical), washed with the buffer A (4 mL each for three times), placed in a vial and dried at 60° C. for one night. After drying, 10 mL of a scintillator (AL-1, toluene base, Dojindo) was added thereto and dpm was measured by a liquid scintillation counter (for 5 minutes/vial).
With regard to a nonspecific binding, it was defined as the dpm when 10 μmol/L of the substance P was added instead of the substance to be tested. The experiment was conducted in duplicate and at least three experiments were repeated. IC50 value was calculated using a probit method (statistic library II, Yukms).

Series [2] is described as follows: Pharmacokinetic test in blood by a single oral administration to guinea pigs. It is filed as in vivo. Conditions: male, Hartley, guinea pig, po, 100 mg/kg orally, plasma; for AUC(0-t): read-out: AUC 0-24 h; for Cmax: read-out: Cmax; for Tmax: read-out: Tmax; for half-life: read-out: t½ (converted). The protocol:
Male guinea pigs of a Hartley strain (SPF, Nippon SLC) were purchased and subjected to a preliminary breeding for one week and the normally grown ones were fasted for one night and used for the test. The compound of the present invention was suspended in 1 g/dL methyl cellulose solution and 100 mg/kg was orally administered in an administering dose of 5 mL/kg. After 0.5, 1, 2, 4, 8 and 24 hour(s) from the oral administration, about 0.4 mL of blood was collected from the vein of median of foreleg using a heparinized capillary. Plasma prepared by its centrifugation (at 12,000 rpm for 10 minutes) was stored at −80° C. until the measurement. Measurement of the concentration in blood was conducted by a UV-detecting HPLC method.

T1 sequence (P25103 whole entry): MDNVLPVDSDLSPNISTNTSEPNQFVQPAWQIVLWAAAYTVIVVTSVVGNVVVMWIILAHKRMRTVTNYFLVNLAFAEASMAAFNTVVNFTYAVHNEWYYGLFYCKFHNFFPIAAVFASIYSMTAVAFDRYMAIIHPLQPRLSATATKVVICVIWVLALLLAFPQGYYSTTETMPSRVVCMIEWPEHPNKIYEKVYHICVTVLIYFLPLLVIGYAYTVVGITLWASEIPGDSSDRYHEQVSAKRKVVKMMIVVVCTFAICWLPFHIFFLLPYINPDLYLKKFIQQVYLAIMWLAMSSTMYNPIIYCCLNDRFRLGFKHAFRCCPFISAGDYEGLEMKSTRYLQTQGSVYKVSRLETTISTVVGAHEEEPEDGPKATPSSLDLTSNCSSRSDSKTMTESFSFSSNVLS

By IC50 is commonly meant the concentration at which inhibition is half-maximal. Read a high IC50 as a need for much substance. Broadly, the Cmax is the maximum level reached in the sampled fluid or tissue. A word on the Tmax: it is the time from dosing to the highest level. For `O=C(NCC(COCc1cc(C(F)(F)F)cc(C(F)(F)F)c1)c1ccccc1)c1cc[n+]([O-])cc1` (centres unmarked) [Compound 20, N-[3-(3,5-Bis(trifluoromethyl)benzyloxy)-2-phenylpropyl]-1-oxyisonicotinamide], the IC50 in series [1] was determined as 5.8 nM. Further, in series [2], the AUC(0-t) worked out at 87.3 µg·h/mL, the Cmax worked out at 10900 ng/mL, the Tmax amounted to 2 h and the half-life was 3.4 h.

In series [1], `O=C(CN1CCC(N2CCCCC2)CC1)NCC(COCc1cc(C(F)(F)F)cc(C(F)(F)F)c1)c1ccccc1` (centres unmarked) [Compound 91, N-[3-(3,5-Bis(trifluoromethyl)benzyloxy)-2-phenylpropyl]-2-[1,4′]bipiperidinyl-1′-ylacetamide dihydrochloride] showed an IC50 of 43.5 nM.

For `O=C(NCC(COCc1cc(C(F)(F)F)cc(C(F)(F)F)c1)c1ccccc1)NC1CCNCC1` (centres unmarked) [Compound 86, 1-[3-(3,5-Bis(trifluoromethyl)benzyloxy)-2-phenylpropyl]-3-piperidin-4-ylurea hydrochloride], the IC50 in series [1] stood at 6 nM.

`C[n+]1ccc(C(=O)NCC(COCc2cc(C(F)(F)F)cc(C(F)(F)F)c2)c2ccccc2)cc1` (centres unmarked) [Compound 26, 4-[3-(3,5-Bis(trifluoromethyl)benzyloxy)-2-phenylpropylcarbamoyl]-1-methylpyridinium iodide] showed an IC50 in series [1] of 5.9 nM. Same read-out and setting: to `O=C(NCC(COCc1cc(C(F)(F)F)cc(C(F)(F)F)c1)c1ccc(F)cc1)c1cc[n+]([O-])cc1` (single isomer, unassigned; (-)) [(−)-Compound 21] belongs 1.5 nM. On the same count and under the same terms, for `CN(CC(COCc1cc(C(F)(F)F)cc(C(F)(F)F)c1)c1ccccc1)C(=O)c1cc[n+]([O-])cc1` (centres unmarked) [Compound 99, N-[3-(3,5-Bis(trifluoromethyl)benzyloxy)-2-phenylpropyl]-N-methyl-1-oxyisonicotinamide] the value was 23.8 nM; for `CN(CC(COCc1cc(C(F)(F)F)cc(C(F)(F)F)c1)c1ccccc1)C(=O)CCCCN` (centres unmarked) [Compound 106, 5-Aminopentanoic acid [3-(3,5-bis(trifluoromethyl)benzyloxy)-2-phenylpropyl]methylamide hydrochloride], 30.3 nM; for `NCCC(=O)NCC(COCc1cc(C(F)(F)F)cc(C(F)(F)F)c1)c1ccccc1` (centres unmarked) [Compound 74, 3-Amino-N-[3-(3,5-bis(trifluoromethyl)benzyloxy)-2-phenylpropyl]propionamide hydrochloride], 33.6 nM. For the molecule `CN(CC(COCc1cc(C(F)(F)F)cc(C(F)(F)F)c1)c1ccccc1)C(=O)CCN` (centres unmarked) [Compound 102, N-[3-(3,5-Bis(trifluoromethyl)benzyloxy)-2-phenylpropyl]-N-methyl-3-aminopropionamide hydrochloride], the half-inhibitory concentration (IC50) in series [1] was 35.5 nM.

`CN(CC(COCc1cc(C(F)(F)F)cc(C(F)(F)F)c1)c1ccccc1)C(=O)C1CCNCC1` (centres unmarked) [Compound 93, N-[3-(3,5-Bis(trifluoromethyl)benzyloxy)-2-phenylpropyl]-N-methylpiperidine-4-carboxamide hydrochloride] gave a 50% inhibitory concentration (IC50) in series [1] of 42.2 nM. In the case of `O=C(Cc1cc[n+]([O-])cc1)NCC(COCc1cc(C(F)(F)F)cc(C(F)(F)F)c1)c1ccc(F)cc1` (centres unmarked) [Compound 40, N-[3-(3,5-Bis(trifluoromethyl)benzyloxy)-2-(4-fluorophenyl)propyl]-2-(1-oxypyridin-4-yl)acetamide], in series [1], the IC50 turned out to be 7.3 nM. Moreover, in series [2], the AUC(0-t) was 279 µg·h/mL, the highest concentration (Cmax) was 22800 ng/mL, the Tmax amounted to 4 h and the half-life is 4 h. With “N-[3-(3,5-Bis(trifluoromethyl)benzyloxy)-2-(4-fluorophenyl)propyl]-N-methylpiperidine-4-carboxamide hydrochloride [Compound 97]”, in series [1], the IC50 is 20.3 nM. In the case of `O=C(CN1CCC(C(=O)O)CC1)NCC(COCc1cc(C(F)(F)F)cc(C(F)(F)F)c1)c1ccccc1` (centres unmarked) [Compound 90, 1-{[3-(3,5-Bis(trifluoromethyl)benzyloxy)-2-phenylpropylcarbamoyl]methyl}piperidine-4-carboxylic acid], the concentration for half-maximal inhibition (IC50) in series [1] was 44 nM. Compared with the last molecule, the IC50 is about 2.2-fold higher. Turning to `O=C(NCC(COCc1cc(C(F)(F)F)cc(C(F)(F)F)c1)c1ccc(F)cc1)c1ccc[n+]([O-])c1` (centres unmarked) [Compound 23, N-[3-(3,5-Bis(trifluoromethyl)benzyloxy)-2-(4-fluorophenyl)propyl]-1-oxynicotinamide], the IC50 in series [1] is 5.4 nM. In addition, in series [2], the AUC(0-t) was determined as 236 µg·h/mL, the Cmax was 17500 ng/mL, the Tmax amounted to 4 h and the half-life was 3.5 h. In series [1], `O=C(NCC(COCc1cc(C(F)(F)F)cc(C(F)(F)F)c1)c1ccc(F)cc1)c1cc[n+]([O-])cc1` (single isomer, unassigned; (+)) [(+)-Compound 21] yielded an IC50 of 9 nM. This lies in the single-digit nanomolar range. The molecule `CN1CCC(C(=O)N(C)CC(COCc2cc(C(F)(F)F)cc(C(F)(F)F)c2)c2ccccc2)CC1` (centres unmarked) [Compound 96, N-[3-(3,5-Bis(trifluoromethyl)benzyloxy)-2-phenylpropyl]-N-methyl-1-methylpiperidine-4-carboxamide hydrochloride] returned an IC50 in series [1] of 28.5 nM. On the same count and under the same terms, for `NCCCCC(=O)NCC(COCc1cc(C(F)(F)F)cc(C(F)(F)F)c1)c1ccccc1` (centres unmarked) [Compound 78, N-[3-(3,5-Bis(trifluoromethyl)benzyloxy)-2-phenylpropyl]-5-aminopentanoicamide hydrochloride] the value was 19 nM; for `CN(CC(COCc1cc(C(F)(F)F)cc(C(F)(F)F)c1)c1ccc(F)cc1)C(=O)c1ccncc1` (centres unmarked) [Compound 98, N-[3-(3,5-Bis(trifluoromethyl)benzyloxy)-2-(4-fluorophenyl)propyl]-N-methylisonicotinamide], 27 nM; for `CN(CC(COCc1cc(C(F)(F)F)cc(C(F)(F)F)c1)c1ccc(F)cc1)C(=O)CCN` (centres unmarked) [Compound 104, 3-Amino-N-[3-(3,5-bis(trifluoromethyl)benzyloxy)-2-(4-fluorophenyl)propyl]-N-methylpropionamide hydrochloride], 6.5 nM.

`CN(CC(COCc1cc(C(F)(F)F)cc(C(F)(F)F)c1)c1ccc(F)cc1)C(=O)C1CCNCC1` (centres unmarked) [Compound 95, N-[3-(3,5-Bis(trifluoromethyl)benzyloxy)-2-(4-fluorophenyl)propyl]-N-methylpiperidine-4-carboxamide hydrochloride] came in with an IC50 in series [1] of 15.4 nM. On the same count and under the same terms, to `NC1CCC(C(=O)NCC(COCc2cc(C(F)(F)F)cc(C(F)(F)F)c2)c2ccccc2)CC1` (centres unmarked) [Compound 88, 4-Aminocyclohexanecarboxylic acid [3-(3,5-bis(trifluoromethyl)benzyloxy)-2-phenylpropyl]amide hydrochloride] belongs 8.6 nM. The same measure, in the same setting: to `O=C(Cc1ccc[n+]([O-])c1)NCC(COCc1cc(C(F)(F)F)cc(C(F)(F)F)c1)c1ccccc1` (centres unmarked) [Compound 41, N-[3-(3,5-Bis(trifluoromethyl)benzyloxy)-2-phenylpropyl]-2-(1-oxypyridin-3-yl)acetamide] belongs 9.2 nM. For the molecule `NCCC(=O)NCC(COCc1cc(C(F)(F)F)cc(C(F)(F)F)c1)c1ccc(F)cc1` (centres unmarked) [Compound 76, 3-Amino-N-[3-(3,5-bis(trifluoromethyl)benzyloxy)-2-(4-fluorophenyl)propyl]propionamide hydrochloride], in series [1], the IC50 worked out at 21 nM. Take `CN(CC(COCc1cc(C(F)(F)F)cc(C(F)(F)F)c1)c1ccc(F)cc1)C(=O)c1ccnc(O)c1` (centres unmarked) [Compound 100, N-[3-(3,5-Bis(trifluoromethyl)benzyloxy)-2-(4-fluorophenyl)propyl]-2-hydroxy-N-methylisonicotinamide]: the IC50 in series [1] came out at 11.9 nM. This IC50 is about 1.8-fold lower than that of the molecule before. Still for that read-out and setting: to `O=C(C=Cc1ccc[n+]([O-])c1)NCC(COCc1cc(C(F)(F)F)cc(C(F)(F)F)c1)c1ccccc1` (centres unmarked) [Compound 54, N-[3-(3,5-Bis(trifluoromethyl)benzyloxy)-2-phenylpropyl]-3-(1-oxypyridin-3-yl)acrylamide] belongs 8.5 nM; to `O=C(O)CN1CCC(C(=O)NCC(COCc2cc(C(F)(F)F)cc(C(F)(F)F)c2)c2ccccc2)CC1` (centres unmarked) [Compound 80, {4-[3-(3,5-Bis(trifluoromethyl)benzyloxy)-2-phenylpropylcarbamoyl]piperidin-1-yl}acetic acid hydrochloride], 14.7 nM.
